Experimental data taken from PubChem BioAssay (NCI).
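Test compounds were applied to cells in 96-well plates for 48 hours at 5 doses. At the TGI there is no net growth.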

Key:
Assay in all cases: growth of human tumour cells (NCI), 48 h
HCT-116 colon = system: HCT-116 colon
A549 NSCLC = system: A549 NSCLC
LOX IMVI melanoma = system: LOX IMVI melanoma
OVCAR-8 ovarian = system: OVCAR-8 ovarian
COLO 205 colon = system: COLO 205 colon
K-562 leukemia = system: K-562 leukemia
HS 578T breast = system: HS 578T breast
NCI-H522 lung = system: NCI-H522 lung
DU-145 prostate = system: DU-145 prostate
PC-3 prostate = system: PC-3 prostate
MOLT-4 leukemia = system: MOLT-4 leukemia
MDA-MB-435 = system: MDA-MB-435
NCI-H226 lung = system: NCI-H226 lung
SF-295 CNS = system: SF-295 CNS
SK-OV-3 ovarian = system: SK-OV-3 ovarian
UACC-257 melanoma = system: UACC-257 melanoma
OVCAR-5 ovarian = system: OVCAR-5 ovarian
RPMI-8226 leukemia = system: RPMI-8226 leukemia
SF-539 CNS = system: SF-539 CNS
OVCAR-4 ovarian = system: OVCAR-4 ovarian
EKVX NSCLC = system: EKVX NSCLC
UACC-62 melanoma = system: UACC-62 melanoma
NCI/ADR-RES ovarian = system: NCI/ADR-RES ovarian
CAKI-1 renal = system: CAKI-1 renal
U251 CNS = system: U251 CNS
HT29 colon = system: HT29 colon
ACHN renal = system: ACHN renal
HCC-2998 colon = system: HCC-2998 colon
HCT-15 colon = system: HCT-15 colon
SK-MEL-2 melanoma = system: SK-MEL-2 melanoma
MALME-3M melanoma = system: MALME-3M melanoma
HL-60(TB) leukemia = system: HL-60(TB) leukemia
SW-620 colon = system: SW-620 colon
UO-31 renal = system: UO-31 renal
CCRF-CEM leukemia = system: CCRF-CEM leukemia
SK-MEL-28 melanoma = system: SK-MEL-28 melanoma
TK-10 renal = system: TK-10 renal
786-0 renal = system: 786-0 renal
SF-268 CNS = system: SF-268 CNS
SK-MEL-5 melanoma = system: SK-MEL-5 melanoma
NCI-H23 lung = system: NCI-H23 lung
OVCAR-3 ovarian = system: OVCAR-3 ovarian
T-47D breast = system: T-47D breast
MDA-N = system: MDA-N
MDA-MB-231 breast = system: MDA-MB-231 breast
IGROV1 ovarian = system: IGROV1 ovarian
MCF7 breast = system: MCF7 breast
SNB-19 CNS = system: SNB-19 CNS
NCI-H460 lung = system: NCI-H460 lung
SN12C renal = system: SN12C renal
BT-549 breast = system: BT-549 breast
SNB-75 CNS = system: SNB-75 CNS
HOP-92 NSCLC = system: HOP-92 NSCLC
M14 melanoma = system: M14 melanoma
KM12 colon = system: KM12 colon

Question: Which TGI (HCT-116 colon) does the source give for C=C1C(=O)C23CC1CCC2C12CO[C@H](O)[C@H]1C(C)(C)[C@H](OC(C)=O)C[C@H]2OC3=O (stereo not given in full) here?
Answer: 28 µM

Question: What about the TGI (A549 NSCLC) of the same molecule?
Answer: > 100 µM

Question: What about the TGI (LOX IMVI melanoma) of the same molecule?
Answer: 33.7 µM

Question: What about the TGI (OVCAR-8 ovarian) of the same molecule?
Answer: > 100 µM

Question: And the TGI (COLO 205 colon)?
Answer: 28.8 µM

Question: What about the TGI (K-562 leukemia) of the same molecule?
Answer: > 100 µM

Question: And the TGI (HS 578T breast)?
Answer: > 100 µM

Question: What about the TGI (NCI-H522 lung) of the same molecule?
Answer: 3.63 µM

Question: And the TGI (DU-145 prostate)?
Answer: 83.3 µM

Question: And the TGI (PC-3 prostate)?
Answer: > 100 µM

Question: And the TGI (MOLT-4 leukemia)?
Answer: 82.2 µM

Question: And the TGI (MDA-MB-435)?
Answer: 44.8 µM

Question: And the TGI (NCI-H226 lung)?
Answer: > 100 µM

Question: What about the TGI (SF-295 CNS) of the same molecule?
Answer: > 100 µM

Question: And the TGI (SK-OV-3 ovarian)?
Answer: > 100 µM

Question: And the TGI (UACC-257 melanoma)?
Answer: > 100 µM

Question: And the TGI (OVCAR-5 ovarian)?
Answer: 33.3 µM

Question: And the TGI (RPMI-8226 leukemia)?
Answer: > 100 µM

Question: What about the TGI (SF-539 CNS) of the same molecule?
Answer: 41.7 µM

Question: What about the TGI (OVCAR-4 ovarian) of the same molecule?
Answer: > 100 µM

Question: And the TGI (EKVX NSCLC)?
Answer: 29.1 µM

Question: What about the TGI (UACC-62 melanoma) of the same molecule?
Answer: 28.9 µM

Question: What about the TGI (NCI/ADR-RES ovarian) of the same molecule?
Answer: > 100 µM

Question: And the TGI (CAKI-1 renal)?
Answer: 28.8 µM

Question: And the TGI (U251 CNS)?
Answer: > 100 µM

Question: And the TGI (HT29 colon)?
Answer: 27.1 µM

Question: What about the TGI (ACHN renal) of the same molecule?
Answer: 29.6 µM

Question: What about the TGI (HCC-2998 colon) of the same molecule?
Answer: 54.2 µM

Question: And the TGI (HCT-15 colon)?
Answer: 28.8 µM

Question: What about the TGI (SK-MEL-2 melanoma) of the same molecule?
Answer: 31.1 µM

Question: What about the TGI (MALME-3M melanoma) of the same molecule?
Answer: 28.1 µM

Question: And the TGI (HL-60(TB) leukemia)?
Answer: 87.9 µM

Question: And the TGI (SW-620 colon)?
Answer: 30.5 µM

Question: And the TGI (UO-31 renal)?
Answer: 67.7 µM

Question: What about the TGI (CCRF-CEM leukemia) of the same molecule?
Answer: > 100 µM

Question: What about the TGI (SK-MEL-28 melanoma) of the same molecule?
Answer: 33.2 µM

Question: And the TGI (TK-10 renal)?
Answer: 28.5 µM

Question: And the TGI (786-0 renal)?
Answer: 29.9 µM

Question: And the TGI (SF-268 CNS)?
Answer: 34.2 µM

Question: And the TGI (SK-MEL-5 melanoma)?
Answer: 77.1 µM

Question: What about the TGI (NCI-H23 lung) of the same molecule?
Answer: > 100 µM

Question: And the TGI (OVCAR-3 ovarian)?
Answer: 55.2 µM

Question: What about the TGI (T-47D breast) of the same molecule?
Answer: 40.5 µM

Question: What about the TGI (MDA-N) of the same molecule?
Answer: 30.6 µM

Question: And the TGI (MDA-MB-231 breast)?
Answer: 37.2 µM

Question: And the TGI (IGROV1 ovarian)?
Answer: > 100 µM

Question: And the TGI (MCF7 breast)?
Answer: 32.4 µM

Question: And the TGI (SNB-19 CNS)?
Answer: > 100 µM

Question: And the TGI (NCI-H460 lung)?
Answer: > 100 µM

Question: What about the TGI (SN12C renal) of the same molecule?
Answer: 46.2 µM

Question: What about the TGI (BT-549 breast) of the same molecule?
Answer: 21.9 µM

Question: And the TGI (SNB-75 CNS)?
Answer: > 100 µM

Question: What about the TGI (HOP-92 NSCLC) of the same molecule?
Answer: 22.2 µM

Question: What about the TGI (M14 melanoma) of the same molecule?
Answer: 53.2 µM

Question: What about the TGI (KM12 colon) of the same molecule?
Answer: > 100 µM
